pIC50: −log10 of the molar value.
Molecular target: T1, Human Factor XIIa (Homo sapiens, UniProt P00748)
T1 construct: purchased Enzyme Research Laboratories
T1 sequence (P00748 373-615 limits assumed): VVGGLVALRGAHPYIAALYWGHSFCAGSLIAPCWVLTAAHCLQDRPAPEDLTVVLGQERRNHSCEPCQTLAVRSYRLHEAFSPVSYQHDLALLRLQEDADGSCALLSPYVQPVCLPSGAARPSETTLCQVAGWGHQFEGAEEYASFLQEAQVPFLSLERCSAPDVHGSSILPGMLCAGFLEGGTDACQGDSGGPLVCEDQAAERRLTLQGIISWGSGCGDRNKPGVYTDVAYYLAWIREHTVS
T1 sequence (P00748 20-372 partner limits assumed): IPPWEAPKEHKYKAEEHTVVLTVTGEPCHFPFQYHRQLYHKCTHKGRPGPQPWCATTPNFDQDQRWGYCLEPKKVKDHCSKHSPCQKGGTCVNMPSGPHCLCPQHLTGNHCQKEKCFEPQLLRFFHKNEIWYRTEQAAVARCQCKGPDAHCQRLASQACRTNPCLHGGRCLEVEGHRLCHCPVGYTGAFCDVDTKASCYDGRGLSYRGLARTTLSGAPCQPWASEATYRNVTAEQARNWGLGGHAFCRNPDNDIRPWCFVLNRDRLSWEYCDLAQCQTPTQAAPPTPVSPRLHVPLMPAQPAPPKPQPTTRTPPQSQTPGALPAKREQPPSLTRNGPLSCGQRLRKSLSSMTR
Assay: Determination of Factor XIIa inhibitory activity in vitro (fluorogenic substrate H-DPro-Phe-Arg-AFC)
Format: biochemical
Conditions: Human Factor XIIa (Enzyme Research Laboratories), 25° C., read-out: Human FXIIa IC50
Experimental: Determination of the % Inhibition for FXIIa
Factor XIIa inhibitory activity in vitro was determined using standard published methods (see e.g. Shori et al., Biochem. Pharmacol., 1992, 43, 1209; Baeriswyl et al., ACS Chem. Biol., 2015, 10 (8) 1861; Bouckaert et al., European Journal of Medicinal Chemistry 110 (2016) 181). Human Factor XIIa (Enzyme Research Laboratories) was incubated at 25° C. with the fluorogenic substrate H-DPro-Phe-Arg-AFC and various concentrations of the test compound. Residual enzyme activity (initial rate of reaction) was determined by measuring the […] and the IC50 value for the test compound was determined.

SMILES | pIC50
Nc1nccc2cc(CNC(=O)c3cc(Cl)cnc3NC3CCCC3)ccc12 [Example 1.01] | 4.40 to 5.00
Nc1nccc2cc(CNC(=O)c3cc(Cl)cnc3NCc3ccccc3)ccc12 [Example 1.02] | 4.40 to 5.00
Nc1nccc2cc(CNC(=O)c3cc(Cl)cnc3NCC3CCOCC3)ccc12 [Example 1.03] | 4.40 to 5.00
Nc1nccc2cc(CNC(=O)c3cc(Cl)cnc3Nc3ccccc3)ccc12 [Example 1.04] | 4.40 to 5.00
COc1ccc(CNc2ncc(Cl)cc2C(=O)NCc2ccc3c(N)nccc3c2)cc1 [Example 1.05] | 4.40 to 5.00
CS(=O)(=O)c1cccc(CNc2ncc(Cl)cc2C(=O)NCc2ccc3c(N)nccc3c2)c1 [Example 1.06] | 5.00 to 5.52
CN(C)c1cccc(CNc2ncc(Cl)cc2C(=O)NCc2ccc3c(N)nccc3c2)c1 [Example 1.07] | 4.40 to 5.00
COCCNc1ncc(Cl)cc1C(=O)NCc1ccc2c(N)nccc2c1 [Example 1.08] | 5.00 to 5.52
CN(C)CCNc1ncc(Cl)cc1C(=O)NCc1ccc2c(N)nccc2c1 [Example 1.09] | 5.52 to 6.00
Nc1nccc2cc(CNC(=O)c3cc(Cl)cnc3NCCN3CCCCC3)ccc12 [Example 1.10] | 5.52 to 6.00
Nc1nccc2cc(CNC(=O)c3cc(Cl)cnc3NCCN3CCOCC3)ccc12 [Example 1.11] | 5.00 to 5.52
CN1CCN(CCNc2ncc(Cl)cc2C(=O)NCc2ccc3c(N)nccc3c2)CC1 [Example 1.12] | 5.52 to 6.00
CN1CCC(CNc2ncc(Cl)cc2C(=O)NCc2ccc3c(N)nccc3c2)CC1 [Example 1.13, N-[(1-Amino-6-isoquinolyl)methyl]-5-chloro-2-[(1-methyl-4-piperidyl)methylamino]pyridine-3-carboxamide] | 6.00 to 6.52
Nc1nccc2cc(CNC(=O)c3cc(Cl)cnc3NCCOc3ccccc3)ccc12 [Example 1.14] | 5.00 to 5.52
Nc1nccc2cc(CNC(=O)c3cc(Cl)cnc3NCCCOc3ccccc3)ccc12 [Example 1.15] | 4.40 to 5.00
Nc1nccc2cc(CNC(=O)c3cc(Cl)cnc3NCCn3ccnc3)ccc12 [Example 1.16] | 5.00 to 5.52
Nc1nccc2cc(CNC(=O)c3cc(Cl)cnc3NCCN3CCS(=O)(=O)CC3)ccc12 [Example 1.17] | 5.00 to 5.52
CC(C)CCNc1ncc(Cl)cc1C(=O)NCc1ccc2c(N)nccc2c1 [Example 1.18] | 4.40 to 5.00
CC(=O)NCCNc1ncc(Cl)cc1C(=O)NCc1ccc2c(N)nccc2c1 [Example 1.19] | 5.00 to 5.52
CC(=O)NCCCNc1ncc(Cl)cc1C(=O)NCc1ccc2c(N)nccc2c1 [Example 1.20] | 5.00 to 5.52
Nc1nccc2cc(CNC(=O)c3cc(Cl)cnc3NCc3ccc4c(c3)OCO4)ccc12 [Example 1.21] | 4.40 to 5.00

SMILES | pIC50
CN1CCCc2cc(CNc3ncc(Cl)cc3C(=O)NCc3ccc4c(N)nccc4c3)ccc21 [Example 1.22] | 5.00 to 5.52
Nc1nccc2cc(CNC(=O)c3cc(Cl)cnc3NCc3ccncc3)ccc12 [Example 1.23] | 5.00 to 5.52
Nc1nccc2cc(CNC(=O)c3cc(Cl)cnc3NCc3cccnc3)ccc12 [Example 1.24] | 5.00 to 5.52
CC(C)N(CCNc1ncc(Cl)cc1C(=O)NCc1ccc2c(N)nccc2c1)C(C)C [Example 1.25] | 6.00 to 6.52
CC(C)N1CCN(CCCNc2ncc(Cl)cc2C(=O)NCc2ccc3c(N)nccc3c2)CC1 [Example 1.26] | 5.52 to 6.00
Nc1nccc2cc(CNC(=O)c3cc(Cl)cnc3NCc3cccc(N4CCCCC4)c3)ccc12 [Example 1.27] | 4.40 to 5.00
Nc1nccc2cc(CNC(=O)c3cc(Cl)cnc3NCC3CCN(c4ccncc4)CC3)ccc12 [Example 1.28] | 6.00 to 6.52
Nc1nccc2cc(CNC(=O)c3cc(Cl)cnc3NCCN3CCCC3=O)ccc12 [Example 1.29] | 5.00 to 5.52
CN1CCN(c2ccccc2CNc2ncc(Cl)cc2C(=O)NCc2ccc3c(N)nccc3c2)CC1 [Example 1.30] | 5.00 to 5.52
Nc1nccc2cc(CNC(=O)c3cc(Cl)cnc3NCC3CCN(Cc4ccccc4)CC3)ccc12 [Example 1.31] | 5.52 to 6.00
Nc1nccc2cc(CNC(=O)c3cc(Cl)cnc3NCc3ccc(N4CCCCC4=O)cc3)ccc12 [Example 1.32] | 4.40 to 5.00
Nc1nccc2cc(CNC(=O)c3cc(Cl)cnc3NCc3cccc(N4CCCC4=O)c3)ccc12 [Example 1.33] | 4.40 to 5.00
Nc1nccc2cc(CNC(=O)c3cc(Cl)cnc3NCc3ccc(CN4CCCC4=O)cc3)ccc12 [Example 1.34] | 4.40 to 5.00
CN1CCC(N(C)c2ncc(Cl)cc2C(=O)NCc2ccc3c(N)nccc3c2)CC1 [Example 1.35] | 4.40 to 5.00
CN1CCN(CCCNc2ncc(Cl)cc2C(=O)NCc2ccc3c(N)nccc3c2)CC1 [Example 1.36] | 5.52 to 6.00
COc1ccc(Nc2ncc(Cl)cc2C(=O)NCc2ccc3c(N)nccc3c2)cc1 [Example 1.37] | 4.40 to 5.00
COc1ccccc1Nc1ncc(Cl)cc1C(=O)NCc1ccc2c(N)nccc2c1 [Example 1.38] | 4.40 to 5.00
CN(C)c1ccc(Nc2ncc(Cl)cc2C(=O)NCc2ccc3c(N)nccc3c2)cc1 [Example 1.39] | 4.40 to 5.00
CN(C)c1cccc(Nc2ncc(Cl)cc2C(=O)NCc2ccc3c(N)nccc3c2)c1 [Example 1.40] | 4.40 to 5.00
CN(C)c1ccccc1Nc1ncc(Cl)cc1C(=O)NCc1ccc2c(N)nccc2c1 [Example 1.41] | 4.40 to 5.00
CS(=O)(=O)Nc1cccc(Nc2ncc(Cl)cc2C(=O)NCc2ccc3c(N)nccc3c2)c1 [Example 1.42] | 4.40 to 5.00

The remaining lines, values ahead:

pIC50 | SMILES
5.52 to 6.00 | CN1CCC(CNc2cccc(C(=O)NCc3ccc4c(N)nccc4c3)n2)CC1 [Example 4.26]
4.40 to 5.00 | CN1CCCN(c2ncc(C(=O)NCc3ccc4c(N)nccc4c3)cc2Cl)CC1 [Example 8.01]
4.40 to 5.00 | COc1ccc(CN(C)c2ncc(C(=O)NCc3ccc4c(N)nccc4c3)cc2Cl)cc1 [Example 8.02]
4.40 to 5.00 | CC(C)N1CCN(c2ncc(C(=O)NCc3ccc4c(N)nccc4c3)cc2Cl)CC1 [Example 8.03]
4.40 to 5.00 | Nc1nccc2cc(CNC(=O)c3cnc(N4CC(O)C4)c(Cl)c3)ccc12 [Example 8.04]
4.40 to 5.00 | CN(C)CCCOc1cccc(CN(C)c2ncc(C(=O)NCc3ccc4c(N)nccc4c3)cc2Cl)c1 [Example 8.05]
5.52 to 6.00 | CN1CCC(N(C)c2ncc(C(=O)NCc3ccc4c(N)nccc4c3)cc2Cl)CC1 [Example 8.06, N-((1-aminoisoquinolin-6-yl)methyl)-5-chloro-6-(methyl(1-methylpiperidin-4-yl)amino)nicotinamide]
5.00 to 5.52 | CN(c1ncc(C(=O)NCc2ccc3c(N)nccc3c2)cc1Cl)C1CCOCC1 [Example 8.07]
4.40 to 5.00 | Nc1nccc2cc(CNC(=O)c3cnc(NC4CCCC4)c(Cl)c3)ccc12 [Example 11.01, N-((1-aminoisoquinolin-6-yl)methyl)-5-chloro-6-(cyclopentylamino)nicotinamide]
5.00 to 5.52 | CN(C)c1ccc(CNc2ncc(C(=O)NCc3ccc4c(N)nccc4c3)cc2Cl)cc1 [Example 11.02]
5.00 to 5.52 | Nc1nccc2cc(CNC(=O)c3cnc(NCC4CCOCC4)c(Cl)c3)ccc12 [Example 11.03]
4.40 to 5.00 | Nc1nccc2cc(CNC(=O)c3cnc(Nc4ccccc4)c(Cl)c3)ccc12 [Example 11.04]
5.52 to 6.00 | CN(C)CCCNc1ncc(Cl)cc1C(=O)NCc1ccc2c(N)nccc2c1 [Example 11.05]
5.00 to 5.52 | CN(C)CCOc1ccc(CNc2ncc(Cl)cc2C(=O)NCc2ccc3c(N)nccc3c2)cc1 [Example 11.06]

Source: patent US20220298141A1, “ENZYME INHIBITORS” (KALVISTA PHARMACEUTICALS LIMITED, priority 2019, published 2022)
